Data published in EPA's ToxRefDB 2.

Tests used:
rat [1] = conditions: Prenatal developmental toxicity study, sprague dawley, Oral, Gavage/Intubation, dose end: 17 GD
rabbit [2] = conditions: Prenatal developmental toxicity study; new zealand white; Oral; Gavage/Intubation; dose end: 19 GD; group: maternal; systemic / in life observation / body weight / body weight gain
rat [3] = conditions: Chronic toxicity; sprague dawley; Oral; Gavage/Intubation; dose end: 6 month; group: systemic; systemic / clinical chemistry / sodium / sodium + systemic / clinical chemistry / bilirubin / total bilirubin + systemic / clinical …
rat [4] = conditions: Sub-acute repeat dose toxicity, sprague dawley, Oral, Gavage/Intubation, dose end: 31 day, group: systemic
dog = conditions: Sub-acute repeat dose toxicity; beagle; Oral; Capsule; dose end: 1 month; group: systemic; systemic / clinical chemistry / triglycerides / triglycerides
rat [5] = conditions: Fertility (Segment I), sprague dawley, Oral, Gavage/Intubation, dose end: 2 week, group: parental
rat [6] = conditions: Fertility (Segment I), sprague dawley, Oral, Gavage/Intubation, dose end: 7 GD
rat [7] = conditions: Prenatal developmental toxicity study, sprague dawley, Oral, Gavage/Intubation, dose end: 17 GD, group: maternal
rabbit [8] = conditions: Prenatal developmental toxicity study; new zealand white; Oral; Gavage/Intubation; dose end: 19 GD; group: maternal; systemic / in life observation / body weight / body weight + systemic / in life observation / body weight / body weight gain + systemic / in…
rat [9] = conditions: Fertility (Segment I), sprague dawley, Oral, Gavage/Intubation, dose end: 7 GD; remark: listed apart in the source
rat [10] = conditions: Subchronic oral toxicity in rodents, fischer, Feed, dose end: 13 week, group: systemic
rat [11] = conditions: Carcinogenicity, fischer, Oral, Feed, dose end: 103 week, group: systemic
mouse [12] = conditions: Subchronic oral toxicity in rodents, b6c3f1, Feed, dose end: 13 week, group: systemic
mouse [13] = conditions: Carcinogenicity, b6c3f1, Oral, Feed, dose end: 103 week, group: systemic
[14] = group: developmental, systemic / in life observation / body weight / fetal weight
[15] = group: maternal, systemic / in life observation / clinical signs / piloerection
[16] = systemic / clinical chemistry / albumin / albumin + systemic / clinical chemistry / phosphorus / phosphorus + systemic / clinical chemistry…
[17] = systemic / hematology / reticulocyte / reticulocyte + systemic / pathology microscopic / lung / histiocytosis + systemic / hematology / …
[18] = systemic / in life observation / body weight / body weight + systemic / in life observation / body weight / body weight gain + systemic / in…
[19] = group: maternal, reproductive / reproductive performance / estrous cycle / abnormal + reproductive / reproductive performance / estrous cycle / corpora lutea…
[20] = group: parental, systemic / in life observation / clinical signs / fur (altered appearance) + systemic / in life observation / clinical signs / salivation
[21] = group: parental, systemic / in life observation / clinical signs / fur (altered appearance) + systemic / in life observation / clinical signs / salivation + …
[22] = reproductive / reproductive performance / postimplantation loss / postimplantation loss + systemic / in life observation / body weight / …
[23] = group: parental, systemic / in life observation / clinical signs / piloerection
[24] = group: parental, systemic / in life observation / clinical signs / piloerection + systemic / in life observation / body weight / body weight + systemic / in …
[25] = systemic / in life observation / body weight / body weight + systemic / pathology microscopic / bone / osteopetrosis + systemic / pathology …
[26] = systemic / pathology microscopic / bone / osteopetrosis + systemic / in life observation / body weight / body weight
[27] = systemic / in life observation / body weight / body weight gain + systemic / pathology microscopic / eye / cataract + systemic / pathology …
[28] = systemic / in life observation / mortality / mortality + systemic / pathology microscopic / adrenal gland / vacuolization cytoplasmic + …
[29] = systemic / pathology microscopic / uterus / hyperplasia
[30] = systemic / pathology microscopic / bone marrow / myelofibrosis + systemic / pathology microscopic / mammary gland / cyst + systemic / …
[31] = systemic / pathology microscopic / liver / adenoma + systemic / pathology microscopic / pituitary gland / adenoma + systemic / pathology …

Which LEL (rat [1]; [14]) does the source give for `COc1ccc2cc(S(=O)(=O)N[C@H](CC(=O)N[C@H](Cc3ccc(CN4[C@H](C)CCC[C@@H]4C)cc3)C(=O)N(C)C(C)C)c3ccc4c(c3)OCO4)ccc2c1.Cl` here?
The LEL was 120 mg/kg/day.

And the LOAEL (rat [1]; [14])?
The LOAEL was 120 mg/kg/day.

What about the NEL (rat [1]; [14]) of the same compound?
The NEL was 60 mg/kg/day.

And the NOAEL (rat [1]; [14])?
Its NOAEL is 60 mg/kg/day.

What about the LEL (rat [1]; [15]) of the same compound?
The LEL was 30 mg/kg/day.

What about the NEL (rat [1]; [15]) of the same compound?
Its NEL is under 30 mg/kg/day.

And the LOAEL (rat [1]; group: maternal, systemic / in life observation / clinical signs / piloerection + systemic / in life observation / food consumption / food consumption)?
The LOAEL was 60 mg/kg/day.

And the NOAEL (rat [1]; group: maternal, systemic / in life observation / clinical signs / piloerection + systemic / in life observation / food consumption / food consumption + …)?
The NOAEL was 30 mg/kg/day.

And the LEL (rabbit [2])?
The LEL was 120 mg/kg/day.

And the LOAEL (rabbit [2])?
The LOAEL was over 120 mg/kg/day.

And the NEL (rabbit [2])?
Its NEL is 60 mg/kg/day.

And the NOAEL (rabbit [2])?
The NOAEL was at least 120 mg/kg/day.

And the LEL (rat [3])?
Its LEL is 10 mg/kg/day.

What about the LOAEL (rat [3]) of the same compound?
The LOAEL was over 100 mg/kg/day.

What about the NEL (rat [3]) of the same compound?
The NEL was under 10 mg/kg/day.

And the NOAEL (rat [3])?
The NOAEL was at least 100 mg/kg/day.

And the LOAEL (rat [4]; [16])?
The LOAEL was 60 mg/kg/day.

What about the NOAEL (rat [4]; [16]) of the same compound?
The NOAEL was 20 mg/kg/day.

What about the LEL (rat [4]; [17]) of the same compound?
Its LEL is 20 mg/kg/day.

What about the NEL (rat [4]; [17]) of the same compound?
The NEL was under 20 mg/kg/day.

What about the LEL (dog) of the same compound?
Its LEL is 10 mg/kg/day.

What about the LOAEL (dog) of the same compound?
The LOAEL was 10 mg/kg/day.

And the NEL (dog)?
The NEL was under 10 mg/kg/day.

And the NOAEL (dog)?
Its NOAEL is under 10 mg/kg/day.

What about the LOAEL (rat [5]; [18]) of the same compound?
Its LOAEL is 150 mg/kg/day.

And the NEL (rat [5]; [18])?
The NEL was 20 mg/kg/day.

And the NOAEL (rat [5]; [18])?
Its NOAEL is 60 mg/kg/day.

And the LEL (rat [5]; systemic / in life observation / clinical signs / salivation)?
The LEL was 60 mg/kg/day.

And the LEL (rat [6]; [19])?
The LEL was 180 mg/kg/day.

What about the LOAEL (rat [6]; [19]) of the same compound?
The LOAEL was over 180 mg/kg/day.

What about the NEL (rat [6]; [19]) of the same compound?
Its NEL is 60 mg/kg/day.

And the NOAEL (rat [6]; [19])?
The NOAEL was at least 180 mg/kg/day.

And the LEL (rat [6]; [20])?
The LEL was 20 mg/kg/day.

And the NEL (rat [6]; [20])?
Its NEL is under 20 mg/kg/day.

What about the LOAEL (rat [6]; [21]) of the same compound?
The LOAEL was over 180 mg/kg/day.

And the NOAEL (rat [6]; [21])?
The NOAEL was at least 180 mg/kg/day.

What about the LEL (rat [7]; reproductive / reproductive performance / postimplantation loss / postimplantation loss) of the same compound?
Its LEL is 60 mg/kg/day.

And the LOAEL (rat [7]; [22])?
The LOAEL was over 180 mg/kg/day.

And the NEL (rat [7]; [22])?
The NEL was 20 mg/kg/day.

And the NOAEL (rat [7]; [22])?
Its NOAEL is at least 180 mg/kg/day.

What about the LEL (rabbit [8]) of the same compound?
Its LEL is 100 mg/kg/day.

What about the LOAEL (rabbit [8]) of the same compound?
Its LOAEL is 100 mg/kg/day.

And the NEL (rabbit [8])?
Its NEL is 50 mg/kg/day.

And the NOAEL (rabbit [8])?
Its NOAEL is 50 mg/kg/day.

What about the LEL (rat [9]; [19]) of the same compound?
The LEL was 180 mg/kg/day.

What about the LOAEL (rat [9]; [19]) of the same compound?
Its LOAEL is 180 mg/kg/day.

And the NEL (rat [9]; [19])?
Its NEL is 60 mg/kg/day.

And the NOAEL (rat [9]; [19])?
Its NOAEL is 60 mg/kg/day.

And the LEL (rat [9]; [23])?
The LEL was 20 mg/kg/day.

And the NEL (rat [9]; [23])?
The NEL was under 20 mg/kg/day.

What about the LOAEL (rat [9]; [24]) of the same compound?
Its LOAEL is 180 mg/kg/day.

And the NOAEL (rat [9]; [24])?
The NOAEL was 60 mg/kg/day.

`C[C@H]1CCCC(=O)CCC/C=C/c2cc(O)cc(O)c2C(=O)O1` [Zearalenone] was tested. Which LOAEL (rat [10]; [25]) did it give?
Its LOAEL is over 150 mg/kg/day.

And the NOAEL (rat [10]; [25])?
Its NOAEL is at least 150 mg/kg/day.

What about the LEL (rat [10]; [26]) of the same compound?
The LEL was 1.5 mg/kg/day.

What about the NEL (rat [10]; [26]) of the same compound?
Its NEL is under 1.5 mg/kg/day.

What about the LOAEL (rat [11]; systemic / in life observation / body weight / body weight gain) of the same compound?
Its LOAEL is 2.5 mg/kg/day.

What about the LEL (rat [11]; [27]) of the same compound?
Its LEL is 1.25 mg/kg/day.

And the NEL (rat [11]; [27])?
Its NEL is under 1.25 mg/kg/day.

What about the NOAEL (rat [11]; [27]) of the same compound?
Its NOAEL is 1.25 mg/kg/day.

And the LOAEL (mouse [12]; [28])?
Its LOAEL is over 450 mg/kg/day.

What about the NOAEL (mouse [12]; [28]) of the same compound?
Its NOAEL is at least 450 mg/kg/day.

And the LEL (mouse [12]; [29])?
The LEL was 4.5 mg/kg/day.

And the NEL (mouse [12]; [29])?
Its NEL is under 4.5 mg/kg/day.

What about the LEL (mouse [13]; [30]) of the same compound?
The LEL was 7.5 mg/kg/day.

And the NEL (mouse [13]; [30])?
Its NEL is under 7.5 mg/kg/day.

And the LOAEL (mouse [13]; [31])?
Its LOAEL is over 15 mg/kg/day.

What about the NOAEL (mouse [13]; [31]) of the same compound?
The NOAEL was at least 15 mg/kg/day.
